Earlier results as cited in patent US20110091452A1, “4,5-Dihydromacbecin Derivatives and Their Use in the Treatment of Cancer or B-Cell Malignancies” (priority 2006, published 2011).

Experiments:
Hsp90 = Hsp90 (Homo sapiens, UniProt P07900)
bacteria and fungi = settings: in vitro
[1] = target: terminal deoxynucleotidyl transferase (Homo sapiens, UniProt P04053)
terminal deoxynucleotidyl transferase, sequence (P04053 whole entry, species assumed): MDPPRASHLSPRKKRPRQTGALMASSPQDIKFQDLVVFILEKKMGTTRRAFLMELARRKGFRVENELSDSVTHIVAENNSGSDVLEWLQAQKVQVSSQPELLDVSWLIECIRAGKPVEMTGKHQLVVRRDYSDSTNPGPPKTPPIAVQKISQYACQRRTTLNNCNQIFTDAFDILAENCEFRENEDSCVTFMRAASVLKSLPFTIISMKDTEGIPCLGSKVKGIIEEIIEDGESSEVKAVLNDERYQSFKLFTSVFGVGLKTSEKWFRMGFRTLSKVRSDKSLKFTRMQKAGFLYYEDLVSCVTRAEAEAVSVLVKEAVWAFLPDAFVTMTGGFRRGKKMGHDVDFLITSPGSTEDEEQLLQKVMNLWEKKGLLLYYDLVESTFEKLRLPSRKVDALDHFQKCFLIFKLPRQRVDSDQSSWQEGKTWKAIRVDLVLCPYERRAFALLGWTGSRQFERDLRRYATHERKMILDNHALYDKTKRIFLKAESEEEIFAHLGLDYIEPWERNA

SMILES: CO[C@H]1C[C@H](C)Cc2cc(O)cc(c2)NC(=O)/C=C/CC[C@H](OC)[C@@H](OC(N)=O)/C(C)=C/[C@H](C)[C@H]1O [KOSN1559]
- binding affinity to Hsp90, greater than 17-AAG (Hsp90; relative to 17-AAG): 8 fold
- binding affinity to Hsp90, greater than geldanamycin (Hsp90; relative to geldanamycin): 4 fold

SMILES: COC1=C2C[C@@H](C)C[C@H](OC)[C@H](O)[C@@H](C)/C=C(\C)[C@H](OC(N)=O)[C@@H](OC)/C=C\C=C(/C)C(=O)NC(=CC1=O)C2=O [geldanamycin]
- activity against bacteria and fungi (bacteria and fungi): weak activity
- activity in vitro against protozoa (protozoa): strong activity

SMILES: CO[C@H]1[C@@H](OC)C[C@H](C)[C@@H](OC)C2=CC(=O)C=C(NC(=O)/C(C)=C/C=C\[C@H](C)[C@@H](OC(N)=O)/C(C)=C/[C@@H]1C)C2=O [macbecin]
- inhibition of reverse transcriptase activity (Reverse transcriptase): not inhibited
- inhibition of terminal deoxynucleotidyl transferase activity [1]: not inhibited
